Measured values reported in patent US20240050429A1, “PAZOPANIB PHARMACEUTICAL COMPOSITION, INJECTION AND PREPARATION METHOD AND USE THEREOF” (Qx Therapeutics, Inc., priority 2022, published 2024).
Counter-ions that a name gives are not always drawn.

Test system: hydrochloric acid-induced acute lung injury in mice
Assay: Hydrochloric acid-induced acute lung injury, lung permeability, tail intravenous injection of Example 2
Assay type: in vivo
Design: dose or concentration left out as unconfirmed
Experimental: 1. In this example, […], respectively, which corresponded to the freshly prepared pharmaceutical compositions in Example 2 (being freshly formulated referred to within 1 day after the formulation was completed), and the therapeutic effect of these doses on hydrochloric acid-induced acute lung injury in mice were determined, wherein the body weight of each mouse was 20 g.
8 to 10 weeks old C57/BL male and female mice were infused with 0.05 M HCl at 2.5 μl/bwg through the trachea. 4 hours later, 100 μl of FITC-labeled albumin (10 mg/ml) was injected through the posterior segment of eyeball. Finally, the mice were euthanized and lung tissue samples were collected 6 hours after the induction of injury to measure changes in pulmonary permeability and lung histopathology. […] Meanwhile, plasma was collected and bronchoalveolar lavage was performed after mice were euthanized.

## Cc1ccc(Nc2nccc(N(C)c3ccc4c(C)n(C)nc4c3)n2)cc1S(N)(=O)=O [Comparative Example 1, pazopanib hydrochloride]
  Percentage (%) of reduced lung permeability: 45 to 70%
